# Assay results published in ChEMBL document CHEMBL1201862, “PubChem BioAssay data set” (2004).
# Active and inactive are the calls of the source.
# Key:
# [1] = molecular target: T1, Intestinal-type alkaline phosphatase (Homo sapiens, UniProt P09923); experiment: human IAP activators, dose response, biochemical, luminescent, uHTS hits, set 2 (AID 488817); type: functional;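 also: potency of activators that raise enzyme activity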
# [2] = molecular target: T2, Intestinal-type alkaline phosphatase (Mus musculus, UniProt P24822); experiment: PubChem AID 488875; type: functional
# [3] = molecular target: T1, Intestinal-type alkaline phosphatase; experiment: activation of human intestinal alkaline phosphatase – biochemical, dose response (AID 488873); type: functional
# [4] = molecular target: T3, Alkaline phosphatase, tissue-nonspecific isozyme (Homo sapiens, UniProt P05186); experiment: TNAP enzyme activators, dose response, selectivity assay for human IAP activator project, biochemical, TNAP isozyme, human IAP uHTS hits (AID 488886); type: functional;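 also: potency of compounds raising TNAP activity as a selectivity check on IAP activators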
# T3 sequence (P05186 whole entry): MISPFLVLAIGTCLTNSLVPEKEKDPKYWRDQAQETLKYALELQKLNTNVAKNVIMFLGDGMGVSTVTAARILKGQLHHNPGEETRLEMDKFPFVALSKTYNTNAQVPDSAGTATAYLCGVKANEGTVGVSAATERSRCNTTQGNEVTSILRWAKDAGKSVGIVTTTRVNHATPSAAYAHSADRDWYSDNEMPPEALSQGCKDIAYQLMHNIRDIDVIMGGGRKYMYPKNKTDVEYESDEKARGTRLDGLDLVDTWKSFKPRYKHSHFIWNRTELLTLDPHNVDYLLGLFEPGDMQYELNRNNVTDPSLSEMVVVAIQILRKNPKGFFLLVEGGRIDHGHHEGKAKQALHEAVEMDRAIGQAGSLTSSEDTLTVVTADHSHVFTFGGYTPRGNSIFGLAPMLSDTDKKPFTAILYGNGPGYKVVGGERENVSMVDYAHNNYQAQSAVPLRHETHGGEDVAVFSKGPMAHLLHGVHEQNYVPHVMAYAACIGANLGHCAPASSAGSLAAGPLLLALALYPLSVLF
# [5] = molecular target: T2, Intestinal-type alkaline phosphatase; experiment: PubChem AID 488785; type: functional
# [6] = molecular target: T3, Alkaline phosphatase, tissue-nonspecific isozyme; experiment: TNAP enzyme inhibition by screening hits, dose response, selectivity assay for mouse IAP inhibitor project, biochemical, human TNAP, uHTS hits (AID 488906); type: functional
# [7] = molecular target: T1, Intestinal-type alkaline phosphatase; experiment: human intestinal alkaline phosphatase activators, dose response, biochemical, luminescence, uHTS hits (AID 463120); type: functional
# [8] = molecular target: Lysine-specific demethylase 4C (Homo sapiens, UniProt Q9H3R0); experiment: GASC-1 (JMJD2C) histone demethylase inhibitors, dose response, biochemical, DELFIA europium, cherry-picked samples (AID 488835); type: functional
# [9] = molecular target: Lysine-specific demethylase 4A (Homo sapiens, UniProt O75164); experiment: JMJD2A histone demethylase inhibitors, dose response, selectivity assay for GASC-1 inhibitor project, biochemical, DELFIA europium, cherry-picked samples (AID 488840)
# [10] = cytotoxicity toward NIH3T3 fibroblasts, dose response, counter-screen, cell-based, ATP luminescence, mouse fibroblasts (AID 2010); type: functional;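 also: cells exposed to compound for about 90 hours before reading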
# [11] = inhibitors of Trypanosoma cruzi host-cell infection, confirmation, beta-gal luminescence, NIH3T3 host cells (AID 2630); type: functional, cell-based; settings: Mus musculus
# [12] = inhibitors of intracellular T. cruzi replication, confirmation, NIH3T3 host cells, beta-gal luminescence (AID 2044); type: functional, cell-based;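 also: intracellular parasites grown in NIH/3T3 mouse fibroblasts as host cells; luminescent beta-galactosidase reporter signal from transgenic T. cruzi replicating inside host cells; inhibitors lower the luminescence signal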
# [13] = Luminescence Cell-Based/Microorganism Confirmation at Dose of Inhibitors of Trypanosoma cruzi Infection. [Related pubchem assays: 1885, 1968 ]; type: functional
# [14] = cytotoxicity in HMLE control line with eGFP shRNA, dose response, counter-screen for HMLE_sh_ECad selective toxicity project, cell-based, HMLE_sh_eGFP, luminescence (AID 463074); type: functional, Homo sapiens;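 also: HMLE human mammary epithelial cells expressing control shRNA against eGFP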
# [15] = Luminescence Cell-Based Dose Retest to Confirm Inhibitors of Cancer Stem Cells. [Related pubchem assays (depositor defined):AID2717, AID2721]; type: functional, Homo sapiens; settings: Homo sapiens
# [16] = molecular target: CAAX prenyl protease 1 (Saccharomyces cerevisiae S288c, UniProt P47154); experiment: Ste24 protease inhibitors, dose response, biochemical, S. cerevisiae, plate reader, cherry-pick (AID 488815)
# [17] = molecular target: T4, Cytochrome P450 1A2 (Homo sapiens, UniProt P05177);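 also: PubChem cytochrome P450 panel assay, CYP1A2 panel member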
# T4 sequence (P05177 whole entry): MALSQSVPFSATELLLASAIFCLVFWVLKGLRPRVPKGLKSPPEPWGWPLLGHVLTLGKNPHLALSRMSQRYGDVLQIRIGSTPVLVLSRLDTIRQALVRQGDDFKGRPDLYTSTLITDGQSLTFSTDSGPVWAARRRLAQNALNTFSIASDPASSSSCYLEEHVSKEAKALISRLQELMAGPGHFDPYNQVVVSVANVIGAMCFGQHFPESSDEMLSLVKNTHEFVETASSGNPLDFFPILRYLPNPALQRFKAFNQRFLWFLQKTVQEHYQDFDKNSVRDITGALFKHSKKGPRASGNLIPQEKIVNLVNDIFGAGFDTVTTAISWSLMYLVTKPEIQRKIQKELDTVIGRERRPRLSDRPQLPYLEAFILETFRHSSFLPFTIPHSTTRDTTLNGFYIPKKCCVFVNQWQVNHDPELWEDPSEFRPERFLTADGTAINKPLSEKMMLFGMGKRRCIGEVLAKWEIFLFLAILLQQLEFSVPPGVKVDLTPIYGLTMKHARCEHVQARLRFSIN
# [18] = molecular target: Cytochrome P450 3A4 (Homo sapiens, UniProt P08684);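 also: CYP3A4 tested as one member of a cytochrome P450 panel screen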
# [19] = molecular target: T5, Type-1 angiotensin II receptor (Homo sapiens, UniProt P30556); experiment: AT1 receptor agonists, dose response, selectivity assay for APJ receptor agonist project, cell-based, uHTS hits (AID 488865); type: functional;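 also: beta-arrestin recruitment to AT1 measured by enzyme fragment complementation luminescence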
# T5 sequence (P30556 whole entry): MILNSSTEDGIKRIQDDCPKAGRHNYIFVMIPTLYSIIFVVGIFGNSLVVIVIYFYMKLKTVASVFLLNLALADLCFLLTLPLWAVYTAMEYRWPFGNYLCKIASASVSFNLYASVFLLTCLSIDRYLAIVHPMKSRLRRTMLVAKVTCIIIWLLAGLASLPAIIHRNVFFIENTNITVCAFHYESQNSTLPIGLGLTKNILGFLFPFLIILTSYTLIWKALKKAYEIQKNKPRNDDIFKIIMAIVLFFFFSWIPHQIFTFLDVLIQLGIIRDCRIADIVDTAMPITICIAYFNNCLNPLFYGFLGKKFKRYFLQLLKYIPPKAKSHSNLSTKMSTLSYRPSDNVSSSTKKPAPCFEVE
# [20] = molecular target: T6, Coagulation factor XII (Homo sapiens, UniProt P00748); experiment: FXIIa inhibitor potency, concentration-response, biochemical (AID 716); type: functional
# T6 sequence (P00748 whole entry): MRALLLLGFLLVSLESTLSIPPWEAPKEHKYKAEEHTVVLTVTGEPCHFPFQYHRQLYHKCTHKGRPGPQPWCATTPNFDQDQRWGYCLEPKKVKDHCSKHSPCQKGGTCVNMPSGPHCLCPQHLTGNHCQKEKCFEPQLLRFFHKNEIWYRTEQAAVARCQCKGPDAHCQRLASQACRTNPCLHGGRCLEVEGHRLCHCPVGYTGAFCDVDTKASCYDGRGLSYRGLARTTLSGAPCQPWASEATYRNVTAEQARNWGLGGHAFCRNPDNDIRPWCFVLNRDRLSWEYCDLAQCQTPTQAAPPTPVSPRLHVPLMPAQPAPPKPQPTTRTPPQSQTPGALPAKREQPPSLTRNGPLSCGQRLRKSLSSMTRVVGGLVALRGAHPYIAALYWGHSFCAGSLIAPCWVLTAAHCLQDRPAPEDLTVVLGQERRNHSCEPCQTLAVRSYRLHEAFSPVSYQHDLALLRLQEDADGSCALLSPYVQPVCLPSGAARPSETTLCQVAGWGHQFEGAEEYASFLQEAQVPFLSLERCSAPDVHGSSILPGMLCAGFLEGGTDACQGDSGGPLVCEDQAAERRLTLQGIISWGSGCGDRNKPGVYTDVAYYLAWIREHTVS
# [21] = molecular target: Cytochrome P450 2C19 (Homo sapiens, UniProt P33261); experiment: Cytochrome panel assay with activity outcomes. Panel member name: p450-cyp2c19 Compounds with AC50 equal or less than 10 uM are considered active; type: functional
# [22] = molecular target: Cytochrome P450 2D6 (Homo sapiens, UniProt P10635);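 also: CYP2D6 member of a cytochrome P450 panel assay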
# [23] = molecular target: Integrin alpha-L (Mus musculus, UniProt P24063); experiment: modulators of CD8 T cell-vesicle binding, dose response, powder samples, mouse 2C CD8+ cells (AID 504565); type: functional
# [24] = molecular target: Sphingosine 1-phosphate receptor 4 (Homo sapiens, UniProt O95977); experiment: Fluorescence dose response cell-based high throughput screening assay for agonists of the Sphingosine 1-Phosphate Receptor 4 (S1P4). [Related pubchem assays: 1509 (Primary screen.), 1523 (Confirmation screen in triplicates.)]; type: functional
# [25] = molecular target: Sphingosine 1-phosphate receptor 1 (Homo sapiens, UniProt P21453); experiment: Fluorescence-based counterscreen assay for S1P4 agonists: Cell-based dose response high throughput screening assay to identify agonists of the Sphingosine 1-Phosphate Receptor 1 (S1P1). [Related pubchem assays (depositor defined):AID1509, AID1523, AID1801, AID463107, AID463118, AID463119, AID463122, AID463123, AID463129, AID463225, AID504400, AID504460]; type: functional
# [26] = molecular target: Voltage-dependent T-type calcium channel subunit alpha-1H (Homo sapiens, UniProt O95180); experiment: Cav3.2 T-type channel blockers, cell-based, SynthLib3 library, HEK293 Cav3.2, fluorescence (AID 493041); type: functional
# [27] = test system: HEK293; experiment: SAR Analysis of small molecule inhibitors of T-cell specific antigen receptor-induced NF-kB activation in a HEK-293T cell line using a luminescence assay - Set 2. [Related pubchem assays (depositor defined):AID435003, AID435012, AID489026]; type: functional, cell-based; settings: Homo sapiens
# [28] = HepG2 cell cytotoxicity, dose response, cytotoxicity control for non-replicating M. tuberculosis project (AID 489018); type: functional; settings: Mycobacterium tuberculosis
# [29] = Vero E6 cell cytotoxicity, dose response, cytotoxicity control for non-replicating M. tuberculosis project, secondary assay (AID 492998); type: functional, VeroE6; settings: Vero C1008
# [30] = C. albicans growth with fluconazole, confirmation, fluorescence, retest (AID 2467); type: functional, cell-based
# [31] = test system: HEK293; experiment: cytotoxicity in HEK293T NF-kB-Luc cells, SAR follow-up, cytotoxicity control for NF-kB activator project, cell-based, resazurin fluorescence (AID 493251); type: functional; settings: Homo sapiens
# [32] = NIH-3T3 fibroblast cytotoxicity, dose response, cytotoxicity control, cell-based, fluorescence, Alamar Blue, secondary assay (AID 2327); type: functional;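 also: NIH-3T3 mouse fibroblasts cultured with fluconazole at 8 µg/mL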
# [33] = test system: Jurkat; experiment: SAR Analysis of small molecule inhibitors of T-cell specific antigen receptor-induced NF-kB activation in a Jurkat cell line using a luminescence assay - Set 2. [Related pubchem assays (depositor defined):AID435003, AID435012, AID465]; type: functional, cell-based; settings: Homo sapiens
# [34] = cells; type: functional
# [35] = THP-1 cell cytotoxicity, dose response, cytotoxicity control for non-replicating M. tuberculosis project (AID 489025); type: functional
# [36] = HEp-2 cell cytotoxicity, dose response, cytotoxicity control for RSV inhibitor project, HTS (AID 2410); type: functional; settings: human respiratory syncytial virus
# [37] = molecular target: G-protein coupled receptor 55 (Homo sapiens, UniProt Q9Y2T6); experiment: GPR55 antagonists blocking LPI-driven arrestin recruitment, primary screen, imaging, U2OS, beta-arrestin-GFP, LPI agonist (AID 2013); type: functional;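 also: antagonist potency measured as reduced agonist-driven arrestin aggregation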
# G-protein coupled receptor 55, sequence (Q9Y2T6 whole entry): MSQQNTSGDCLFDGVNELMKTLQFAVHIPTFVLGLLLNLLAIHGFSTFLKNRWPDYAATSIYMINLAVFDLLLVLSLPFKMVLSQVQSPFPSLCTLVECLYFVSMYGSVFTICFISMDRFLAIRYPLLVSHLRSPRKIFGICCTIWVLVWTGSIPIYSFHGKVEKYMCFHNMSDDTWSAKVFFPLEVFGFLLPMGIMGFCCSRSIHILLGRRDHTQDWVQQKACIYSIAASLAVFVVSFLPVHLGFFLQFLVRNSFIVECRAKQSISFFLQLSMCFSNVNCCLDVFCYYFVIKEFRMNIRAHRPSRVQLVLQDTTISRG
# T1 sequence (P09923 whole entry): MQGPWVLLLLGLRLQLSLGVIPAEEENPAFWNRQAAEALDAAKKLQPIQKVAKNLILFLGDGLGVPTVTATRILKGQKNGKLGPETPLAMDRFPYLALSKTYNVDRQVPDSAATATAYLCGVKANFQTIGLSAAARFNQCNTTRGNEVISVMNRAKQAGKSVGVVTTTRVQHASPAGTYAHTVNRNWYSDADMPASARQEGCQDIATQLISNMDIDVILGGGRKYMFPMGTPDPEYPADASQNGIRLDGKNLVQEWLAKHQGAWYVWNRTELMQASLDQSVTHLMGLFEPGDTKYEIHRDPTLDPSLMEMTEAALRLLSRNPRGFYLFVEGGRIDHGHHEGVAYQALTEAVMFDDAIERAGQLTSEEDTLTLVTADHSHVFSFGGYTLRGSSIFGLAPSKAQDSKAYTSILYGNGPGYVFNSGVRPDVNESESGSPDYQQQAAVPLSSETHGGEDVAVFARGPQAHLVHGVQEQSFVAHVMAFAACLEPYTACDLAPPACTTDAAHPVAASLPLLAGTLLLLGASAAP
# T2 sequence (P24822 whole entry): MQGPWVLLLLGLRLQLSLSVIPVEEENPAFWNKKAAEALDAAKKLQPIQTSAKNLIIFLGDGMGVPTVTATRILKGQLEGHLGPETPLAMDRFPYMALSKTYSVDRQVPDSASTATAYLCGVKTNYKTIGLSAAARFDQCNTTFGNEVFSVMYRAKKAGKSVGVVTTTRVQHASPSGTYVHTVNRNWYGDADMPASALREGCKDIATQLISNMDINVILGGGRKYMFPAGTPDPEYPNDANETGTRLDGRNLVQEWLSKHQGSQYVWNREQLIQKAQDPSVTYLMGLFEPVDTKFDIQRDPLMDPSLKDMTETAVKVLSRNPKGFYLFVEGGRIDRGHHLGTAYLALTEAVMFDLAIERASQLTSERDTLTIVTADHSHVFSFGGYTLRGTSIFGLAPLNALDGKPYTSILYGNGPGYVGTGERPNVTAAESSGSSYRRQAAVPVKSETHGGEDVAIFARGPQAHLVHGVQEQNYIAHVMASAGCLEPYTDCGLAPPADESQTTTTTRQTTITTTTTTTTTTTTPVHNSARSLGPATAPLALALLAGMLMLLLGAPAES
# Cytochrome P450 2D6, sequence (P10635 whole entry): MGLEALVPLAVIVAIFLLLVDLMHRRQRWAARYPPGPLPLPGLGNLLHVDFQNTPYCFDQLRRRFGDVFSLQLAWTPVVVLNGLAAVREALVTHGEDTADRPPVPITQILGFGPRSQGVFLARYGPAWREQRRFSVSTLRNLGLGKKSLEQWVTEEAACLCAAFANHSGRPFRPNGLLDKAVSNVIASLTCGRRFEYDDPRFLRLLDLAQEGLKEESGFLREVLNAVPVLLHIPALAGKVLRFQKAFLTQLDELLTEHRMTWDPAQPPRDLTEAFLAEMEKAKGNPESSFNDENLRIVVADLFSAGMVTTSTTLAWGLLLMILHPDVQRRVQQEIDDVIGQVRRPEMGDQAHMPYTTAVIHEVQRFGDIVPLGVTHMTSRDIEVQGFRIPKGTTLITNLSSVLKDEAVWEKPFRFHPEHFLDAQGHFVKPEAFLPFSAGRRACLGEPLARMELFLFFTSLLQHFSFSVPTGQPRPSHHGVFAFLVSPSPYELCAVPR
# Lysine-specific demethylase 4C, sequence (Q9H3R0 whole entry): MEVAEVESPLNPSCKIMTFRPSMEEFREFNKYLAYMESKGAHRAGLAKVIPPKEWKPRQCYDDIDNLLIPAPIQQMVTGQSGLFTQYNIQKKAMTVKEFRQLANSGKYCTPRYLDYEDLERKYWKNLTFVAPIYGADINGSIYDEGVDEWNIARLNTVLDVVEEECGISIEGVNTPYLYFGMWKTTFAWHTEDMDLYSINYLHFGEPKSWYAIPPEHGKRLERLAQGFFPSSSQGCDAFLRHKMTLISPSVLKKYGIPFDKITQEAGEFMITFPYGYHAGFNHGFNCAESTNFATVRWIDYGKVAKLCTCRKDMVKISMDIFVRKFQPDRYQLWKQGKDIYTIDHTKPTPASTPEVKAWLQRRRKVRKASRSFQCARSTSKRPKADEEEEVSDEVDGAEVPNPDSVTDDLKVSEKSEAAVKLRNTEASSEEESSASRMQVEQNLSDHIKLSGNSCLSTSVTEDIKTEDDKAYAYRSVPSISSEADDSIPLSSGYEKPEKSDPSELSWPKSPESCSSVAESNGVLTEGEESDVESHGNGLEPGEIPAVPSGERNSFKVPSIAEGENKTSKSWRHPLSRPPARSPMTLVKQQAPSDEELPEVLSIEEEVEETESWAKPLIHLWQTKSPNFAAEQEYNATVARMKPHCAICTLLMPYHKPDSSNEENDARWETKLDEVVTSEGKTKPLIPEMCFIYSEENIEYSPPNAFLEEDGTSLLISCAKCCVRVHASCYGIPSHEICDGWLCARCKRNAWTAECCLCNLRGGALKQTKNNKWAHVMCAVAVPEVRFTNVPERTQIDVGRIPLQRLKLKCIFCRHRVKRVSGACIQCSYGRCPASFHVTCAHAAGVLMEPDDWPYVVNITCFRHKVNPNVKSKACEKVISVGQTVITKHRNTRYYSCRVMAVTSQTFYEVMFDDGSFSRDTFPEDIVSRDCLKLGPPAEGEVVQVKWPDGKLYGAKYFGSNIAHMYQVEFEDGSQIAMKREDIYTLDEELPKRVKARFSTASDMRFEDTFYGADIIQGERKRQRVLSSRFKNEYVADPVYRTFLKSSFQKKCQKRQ
# CAAX prenyl protease 1, sequence (P47154 whole entry): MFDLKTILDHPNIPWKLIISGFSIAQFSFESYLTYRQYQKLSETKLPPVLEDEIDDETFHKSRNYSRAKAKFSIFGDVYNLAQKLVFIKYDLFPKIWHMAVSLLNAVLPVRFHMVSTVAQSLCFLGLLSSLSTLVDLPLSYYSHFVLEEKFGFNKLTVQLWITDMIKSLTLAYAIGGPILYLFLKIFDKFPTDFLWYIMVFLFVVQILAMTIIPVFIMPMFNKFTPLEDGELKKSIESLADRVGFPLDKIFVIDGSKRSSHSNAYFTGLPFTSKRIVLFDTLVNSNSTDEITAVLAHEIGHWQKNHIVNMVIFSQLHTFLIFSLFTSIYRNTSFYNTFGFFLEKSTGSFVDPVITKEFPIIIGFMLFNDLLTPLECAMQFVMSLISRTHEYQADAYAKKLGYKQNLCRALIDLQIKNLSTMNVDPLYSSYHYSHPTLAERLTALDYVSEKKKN
# Sphingosine 1-phosphate receptor 1, sequence (P21453 whole entry): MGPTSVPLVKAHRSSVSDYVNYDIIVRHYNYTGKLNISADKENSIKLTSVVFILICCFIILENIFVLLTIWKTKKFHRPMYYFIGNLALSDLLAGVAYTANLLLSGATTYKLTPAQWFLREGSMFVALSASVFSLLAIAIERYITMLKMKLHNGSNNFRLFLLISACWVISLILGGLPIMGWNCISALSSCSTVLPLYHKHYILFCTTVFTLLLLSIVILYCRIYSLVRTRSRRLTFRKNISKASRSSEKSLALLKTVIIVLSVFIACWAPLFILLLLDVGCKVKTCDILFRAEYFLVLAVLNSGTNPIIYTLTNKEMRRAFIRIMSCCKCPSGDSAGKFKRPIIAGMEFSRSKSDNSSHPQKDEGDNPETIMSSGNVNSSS
# Lysine-specific demethylase 4A, sequence (O75164 whole entry): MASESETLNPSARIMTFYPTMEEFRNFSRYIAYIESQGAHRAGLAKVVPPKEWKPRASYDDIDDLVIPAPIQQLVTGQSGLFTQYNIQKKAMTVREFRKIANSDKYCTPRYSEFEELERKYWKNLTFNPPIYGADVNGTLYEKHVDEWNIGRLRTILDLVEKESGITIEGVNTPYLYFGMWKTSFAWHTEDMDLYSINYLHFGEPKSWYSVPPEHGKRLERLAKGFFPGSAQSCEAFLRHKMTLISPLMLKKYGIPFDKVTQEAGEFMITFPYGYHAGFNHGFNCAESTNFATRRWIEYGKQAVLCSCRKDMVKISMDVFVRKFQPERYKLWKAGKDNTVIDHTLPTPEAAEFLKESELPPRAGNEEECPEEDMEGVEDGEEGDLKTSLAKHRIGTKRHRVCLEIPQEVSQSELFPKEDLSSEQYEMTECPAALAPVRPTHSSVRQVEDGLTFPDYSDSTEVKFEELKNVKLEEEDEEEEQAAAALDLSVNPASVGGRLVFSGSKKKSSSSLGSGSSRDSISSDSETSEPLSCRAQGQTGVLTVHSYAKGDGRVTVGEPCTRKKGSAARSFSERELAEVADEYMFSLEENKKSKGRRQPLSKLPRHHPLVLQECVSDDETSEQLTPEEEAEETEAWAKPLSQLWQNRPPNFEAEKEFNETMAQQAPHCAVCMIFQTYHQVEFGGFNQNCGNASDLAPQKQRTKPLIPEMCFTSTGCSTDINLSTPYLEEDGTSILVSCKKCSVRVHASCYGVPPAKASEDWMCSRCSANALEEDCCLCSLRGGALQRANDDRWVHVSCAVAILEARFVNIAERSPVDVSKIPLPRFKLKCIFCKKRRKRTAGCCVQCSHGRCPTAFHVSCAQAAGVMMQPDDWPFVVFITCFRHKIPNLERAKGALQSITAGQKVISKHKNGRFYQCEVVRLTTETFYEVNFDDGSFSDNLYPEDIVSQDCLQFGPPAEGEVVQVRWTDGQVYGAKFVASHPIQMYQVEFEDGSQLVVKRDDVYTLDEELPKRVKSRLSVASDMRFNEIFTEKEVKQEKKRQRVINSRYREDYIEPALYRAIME
smiles,measurement,setting,value
CCn1nc(C)c(CN2CCC(C(=O)Nc3cccc(-c4cccc(F)c4)c3)CC2)c1C,EC50,[1],52.9 µM (active)
same,EC50,[2],49.9 µM (active)
same,EC50,[3],> 100 µM (inactive)
same,EC50,[4],54 µM (active)
same,IC50,[5],8.35 µM (active)
same,IC50,[6],23.4 µM (active)
same,EC50,[7],59.8 µM (active)
Cn1c(=O)c2nc(O)cnc2n(C)c1=S,AC50,[8],4.26 µM (active)
same,AC50,[9],45.3 µM (active)
CC1CCCN(C(=O)Cc2cn(Cc3cccc(Cl)c3)c3ccccc23)C1 (configuration not stated),EC50,[10],> 60 µM (not active)
same,EC50,[11],2.81 µM (active)
same,EC50,[12],1.79 µM (active)
same,EC50,[13],2.81 µM (active)
CCC(C(=O)Nc1cc(OC)c(NC(=O)c2ccccc2)cc1OC)c1ccccc1 (configuration not stated),AC50,[14],51.9 µM (active)
same,AC50,[15],4.24 µM (active)
CCN=C(S)NNC(=O)CCn1cc(C)cn1,AC50,[16],32.4 µM (active)
O=C(c1ccc2c(c1)N(Cc1ccc(F)cc1)C(=O)CS2)N1CCOCC1,AC50,[17],inconclusive
same,AC50,[18],25.1 µM (inconclusive)
COC(=O)CCCC1=CC2=CC(=O)C(C)(OC(=O)c3cccs3)C(=O)C2=CN1C1CCCCC1 (configuration not stated),EC50,[19],> 100 µM (inactive)
O=C1C(c2ccncc2)N(CCC2=CCCCC2)C(=O)CN1C1CCCCC1 (configuration not stated),IC50,[20],> 50 µM (inactive)
CC1=N/C(=C\c2ccc([N+](=O)[O-])cc2)C(=O)N1c1ccc(Cl)cc1,AC50,[21],inconclusive
same,AC50,[22],inconclusive
Cc1cc(C)n(C(=O)c2sc3cc(F)ccc3c2Cl)n1,EC50,[23],0.299 µM (active)
CNC(=O)c1[nH]cnc1C(=O)N[C@@H](CC(C)C)C(=O)OCc1ccccc1,EC50,[24],5.27 µM (active)
same,EC50,[25],22 µM (inactive)
CC(Cc1nnc(NC(=O)COc2ccc(Cl)cc2Cl)o1)CC(C)(C)C (configuration not stated),EC50,[26],10 µM (active)
Cc1ccc(NC(=O)c2ccc([N+](=O)[O-])o2)cc1C,IC50,[27],38.6 µM (inactive)
same,CC50,[28],15.1 µM (active)
same,CC50,[29],6.87 µM (active)
same,EC50,[30],1.87 µM (active)
same,IC50,[31],47.3 µM (inactive)
same,EC50,[32],14.2 µM (active)
same,IC50,[33],6.86 µM (active)
same,IC50,[34],0.7 µM (active)
same,CC50,[35],16.2 µM (active)
COc1ccc(-c2csc(Nc3ccc(S(=O)(=O)Nc4cc(OC)nc(OC)n4)cc3)n2)cc1,CC50,[36],15.2 µM (active)
same,IC50,[37],4.76 µM (active)
